One may read the EC50 as the concentration needed to bring the measured effect to its halfway point.

This is an account of results in US9896434B2, “Substituted indanone compounds as GPR119 modulators for the treatment of diabetes, obesity, dyslipidemia and related disorders” (SANOFI, priority 2014, dated 2018).

The target of the test is T1, human GPR119 (Homo sapiens, UniProt Q8TDV5).
T1 construct: expressed in transfected cells
T1 sequence (Q8TDV5 1-335): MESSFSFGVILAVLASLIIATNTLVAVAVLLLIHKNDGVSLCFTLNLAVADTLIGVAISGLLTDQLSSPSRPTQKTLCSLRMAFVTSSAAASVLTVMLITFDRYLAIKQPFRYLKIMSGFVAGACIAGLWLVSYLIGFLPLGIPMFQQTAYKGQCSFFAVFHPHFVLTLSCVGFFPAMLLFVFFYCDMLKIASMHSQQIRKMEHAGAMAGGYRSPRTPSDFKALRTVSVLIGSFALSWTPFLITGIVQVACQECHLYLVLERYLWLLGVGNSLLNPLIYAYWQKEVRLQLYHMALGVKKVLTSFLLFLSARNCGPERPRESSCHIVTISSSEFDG
The experiment in a line: Functional cellular assay measuring GPR119-mediated cAMP release (HTRF). Type of test: cell-based. Particulars: HEK-293 cell line stably expressing recombinant human GPR119; cAMP response, 30 minutes at room temperature. Here is the method: Functional Cellular Assays Measuring GPR119-Mediated cAMP Release
Compounds of the invention, which are agonists of GPR119, were characterized by functional assays measuring the cAMP response of HEK-293 cell lines stably expressing recombinant GPR119 from man, mouse or rat, or by using a hamster cell line HIT-T15 expressing GPR119 endogenously. The cAMP content was determined using a kit based on homogenous time-resolved fluorescence (HTRF) from Cisbio Corp. (cat. no. 62AM4PEC). For preparation, cells were split into T175 culture flasks and grown to near confluency in medium (DMEM/10% FCS for HEK-293 cells, and F-12K medium/10% horse serum/2.5% FCS for HIT-T15 cells, respectively). Medium was then removed and cells washed with PBS lacking calcium and magnesium ions, followed by proteinase treatment with accutase (Sigma-Aldrich, cat. no. A6964). Detached cells were washed and resuspended in assay buffer (1×HBSS; 20 mM HEPES, 0.1% BSA, 2 mM IBMX) and cellular density determined. They were then diluted to 400000 cells/mL and 25 μL-aliquots dispensed to the wells of 96-well plates. For measurement, 25 μL of test compound in assay buffer was added and incubated for 30 minutes at room temperature. After addition of HTRF reagents diluted in lysis buffer, the plates were incubated for 1 hour, followed by measuring the fluorescence ratio at 665 vs. 620 nm. Potency of the agonists was quantified by determining the concentrations that caused 50% of the maximal response/activation (EC50). See Table 4 for exemplary data obtained using the cell line expressing human GPR119.
A general note: In TR-FRET formats the signal depends on donor and acceptor labels being close together.
Regarding `O=C1CC(CCO)c2ccc(N3CC[C@@H](Oc4ccc(OCC5CC5)nc4)C3=O)cc21` (stereo partly drawn) [Example 1-08, (3R)-3-[[6-(cyclopropylmethoxy)-3-pyridyl]oxy]-1-[1-(2-hydroxyethyl)-3-oxo-indan-5-yl]pyrrolidin-2-one], the EC50 worked out at 79 nM. As for `O=C1c2cc(N3CC[C@@H](Oc4ccc(OCC5CC5)nc4)C3=O)cc(F)c2CC1CCO` (stereo partly drawn) [Example 1-05, (3R)-3-[[6-(cyclopropylmethoxy)-3-pyridyl]oxy]-1-[7-fluoro-2-(2-hydroxyethyl)-3-oxo-indan-5-yl]pyrrolidin-2-one], the figure is 233 nM; as for `NC(=O)CC1CC(=O)c2cc(N3CC[C@@H](Oc4ccc(OCC5CC5)nc4)C3=O)cc(F)c21` (stereo partly drawn) [Example 3-10, 2-[5-[(3R)-3-[[6-(cyclopropylmethoxy)-3-pyridyl]oxy]-2-oxo-pyrrolidin-1-yl]-7-fluoro-3-oxo-indan-1-yl]acetamide], 73 nM; as for `O=C(O)C[C@H]1CC(=O)c2cc(N3CC[C@@H](Oc4ccc(OCC5CC5)nc4)C3=O)ccc21` [Example 2-04, 2-[5-[(3R)-3-[[6-(cyclopropylmethoxy)-3-pyridyl]oxy]-2-oxo-pyrrolidin-1-yl]-3-oxo-indan-1-yl]acetic acid], 505 nM. As for `COC(=O)CC1CC(=O)c2cc(N3CC[C@@H](Oc4ccc(OC5CC5)nc4)C3=O)ccc21` (stereo partly drawn) [Example 1-13, methyl 2-[5-[(3R)-3-[[6-(cyclopropoxy)-3-pyridyl]oxy]-2-oxo-pyrrolidin-1-yl]-3-oxo-indan-1-yl]acetate], the EC50 worked out at 98 nM. Then `O=C1CC(CCO)c2ccc(N3CC[C@@H](Oc4ccc(Oc5ccc(F)cc5)nc4)C3=O)cc21` (stereo partly drawn) [Example 1-01, (3R)-3-[[6-(4-Fluorophenoxy)-3-pyridyl]oxy]-1-[1-(2-hydroxyethyl)-3-oxo-indan-5-yl]pyrrolidin-2-one], with 311 nM. Then `NC(=O)CC1CC(=O)c2cc(N3CC[C@@H](Oc4ccc(OCC5CC5)nc4)C3=O)ccc21` (stereo partly drawn) [Example 3-04, 2-[5-[(3R)-3-[[6-(cyclopropylmethoxy)-3-pyridyl]oxy]-2-oxo-pyrrolidin-1-yl]-3-oxo-indan-1-yl]acetamide], with 320 nM. As for `CN(C)C(=O)C1CC(=O)c2cc(N3CC[C@@H](Oc4ccc(OCC5CC5)nc4)C3=O)cc(F)c21` (stereo partly drawn) [Example 1-16, 5-[(3R)-3-[[6-(cyclopropylmethoxy)-3-pyridyl]oxy]-2-oxo-pyrrolidin-1-yl]-7-fluoro-N,N-dimethyl-3-oxo-indane-1-carboxamide], the figure is 117 nM; as for `COC(=O)CC1CC(=O)c2cc(N3CC[C@@H](Oc4ccc(OCC5CC5)nc4)C3=O)ccc21` (stereo partly drawn) [Example 1-06, methyl 2-[5-[(3R)-3-[[6-(cyclopropylmethoxy)-3-pyridyl]oxy]-2-oxo-pyrrolidin-1-yl]-3-oxo-indan-1-yl]acetate], 19 nM; as for `O=C(O)CC1Cc2c(F)cc(N3CC[C@@H](Oc4ccc(OCC5CC5)nc4)C3=O)cc2C1=O` (stereo partly drawn) [Example 2-01, {6-[(R)-3-(6-cyclopropylmethoxy-pyridin-3-yloxy)-2-oxo-pyrrolidin-1-yl]-4-fluoro-1-oxo-indan-2-yl}-acetic acid], 360 nM. On to `COC(=O)CC1(CC(=O)O)Cc2c(F)cc(N3CC[C@@H](Oc4ccc(OCC5CC5)nc4)C3=O)cc2C1=O` (stereo partly drawn) [Example 1-07, 2-[6-[(3R)-3-[[6-(cyclopropylmethoxy)-3-pyridyl]oxy]-2-oxo-pyrrolidin-1-yl]-4-fluoro-2-(2-methoxy-2-oxo-ethyl)-1-oxo-indan-2-yl]acetic acid], for which the 50% effective concentration (EC50) was found to be 332 nM. As for `NC(=O)CC1Cc2c(F)cc(N3CC[C@@H](Oc4ccc(OCC5CC5)nc4)C3=O)cc2C1=O` (stereo partly drawn) [Example 3-05, 2-[6-[(3R)-3-[[6-(cyclopropylmethoxy)-3-pyridyl]oxy]-2-oxo-pyrrolidin-1-yl]-4-fluoro-1-oxo-indan-2-yl]acetamide], the figure is 78 nM.
